In patent US4340609A, “Amidinourea derivative veterinary compositions for suppression of parasitemia” (William H. Rorer, Inc., priority 1980, dated 1982):
Structures can show the parent of a compound that is named as a salt. Where two headings read alike, the source gives them in different places.

Tests used:
[1] = tested on: plasmodium berghei; assay: suppression of parasitemia in mice infected with plasmodium berghei; assay type: in vivo; settings: for ED50: Plasmodium berghei, sc; for ED50 / Mean % Parasitemia / Mean % Suppression / % died: mice; for FACTOR (HIGHEST SED50 ÷ LOWEST SED50): factor of change, duration of action
How it was run: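 Mice, 10 per dose group, infected intraperitoneally with 5,000,000 P. berghei-parasitized blood cells. Seven doses from 0.15 to 10 mg/kg (as base) in 0.5% methocel were given subcutaneously on days 1, 2 and 3. Parasitemia was followed by blood smears on days 4, 5, 6 and 10.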

[2] = LD50 in mice; settings: mouse, in vivo
[3] = tested on: P. berghei; settings: cited from earlier work
[4] = 96 h, s.c., levels of parasitemia, 4th day, read-out: SED50 (Suppressant Effective Dose50)
[5] = 120 h, s.c., levels of parasitemia, 5th day, read-out: SED50 (Suppressant Effective Dose50)
[6] = 144 h, s.c., levels of parasitemia, 6th day, read-out: SED50 (Suppressant Effective Dose50)
[7] = 240 h, s.c., levels of parasitemia, 10th day, read-out: SED50 (Suppressant Effective Dose50)
[8] = day 4 to day 10, read-out: HIGHEST SED50
[9] = day 4 to day 10, read-out: LOWEST SED50
[10] = s.c., 1.0 mg/kg on days 1-3, 4th day
[11] = s.c., 1.0 mg/kg on days 1-3, 5th day
[12] = s.c., 1.0 mg/kg on days 1-3, 6th day
[13] = s.c., 1.0 mg/kg on days 1-3, 10th day
[14] = s.c., 2.0 mg/kg on days 1-3, 4th day
[15] = s.c., 2.0 mg/kg on days 1-3, 5th day
[16] = s.c., 2.0 mg/kg on days 1-3, 6th day
[17] = s.c., 2.0 mg/kg on days 1-3, 10th day
[18] = s.c., 2.0 mg/kg on days 1-3, 12th day
[19] = s.c., 2.0 mg/kg on days 1-3, 13th day
[20] = s.c., 2.0 mg/kg on days 1-3, 14th day
[21] = s.c., 10.0 mg/kg on days 1-3, 4th day
[22] = s.c., 10.0 mg/kg on days 1-3, 5th day
[23] = s.c., 10.0 mg/kg on days 1-3, 6th day
[24] = s.c., 10.0 mg/kg on days 1-3, 10th day
[25] = s.c., 10.0 mg/kg on days 1-3, 13th day
[26] = s.c., 10.0 mg/kg on days 1-3, 14th day
[27] = s.c., .15 mg/kg on days 1-3, 4th day
[28] = s.c., .15 mg/kg on days 1-3, 5th day
[29] = s.c., .15 mg/kg on days 1-3, 6th day
[30] = s.c., .15 mg/kg on days 1-3, 10th day
[31] = s.c., .20 mg/kg on days 1-3, 4th day
[32] = s.c., .20 mg/kg on days 1-3, 5th day
[33] = s.c., .20 mg/kg on days 1-3, 6th day
[34] = s.c., .20 mg/kg on days 1-3, 10th day
[35] = s.c., .20 mg/kg on days 1-3, 12th day
[36] = s.c., .20 mg/kg on days 1-3, 13th day
[37] = s.c., .20 mg/kg on days 1-3, 14th day
[38] = s.c., .30 mg/kg on days 1-3, 4th day
[39] = s.c., .30 mg/kg on days 1-3, 5th day
[40] = s.c., .30 mg/kg on days 1-3, 6th day
[41] = s.c., .30 mg/kg on days 1-3, 10th day
[42] = s.c., .50 mg/kg on days 1-3, 4th day
[43] = s.c., .50 mg/kg on days 1-3, 5th day
[44] = s.c., .50 mg/kg on days 1-3, 6th day
[45] = s.c., .50 mg/kg on days 1-3, 10th day
[46] = s.c., .50 mg/kg on days 1-3, 12th day
[47] = s.c., .50 mg/kg on days 1-3, 13th day
[48] = s.c., .50 mg/kg on days 1-3, 14th day

Compound `CCCN=C(NC)NC(=O)Nc1c(C)cccc1C` [Compound D, 1-(2,6-dimethylphenyl)-3-N-methyl-N'-propylamidino)urea hydrochloride] has an ED50 [1, 4] of 0.9 mg/kg, an ED50 [1, 5] of 1.91 mg/kg and an ED50 [1, 6] of 2.09 mg/kg. The ED50 [1, 7] was 4.47 mg/kg, the ED50 [1, 8] was 4.47 mg/kg and the ED50 [1, 9] was 0.9 mg/kg. For the same compound, the “FACTOR (HIGHEST SED50 ÷ LOWEST SED50)” value ([1]; day 4 to day 10) was 4.97, the “Mean % Parasitemia” value [1, 10] was 2.25% and the “Mean % Suppression” value [1, 10] was 57.1%. The “Mean % Parasitemia” value [1, 11] was 6.50%, the “Mean % Suppression” value [1, 11] was 11.0% and the “Mean % Parasitemia” value [1, 12] was 6.70%. For the same compound, the “Mean % Suppression” value [1, 12] was 28.0%, the “Mean % Parasitemia” value [1, 13] was 22.4% and the “Mean % Suppression” value [1, 13] was 36.9%. The “% died” value ([1]; s.c., 1.0 mg/kg on days 1-3, 12th day) was 20%, the “% died” value ([1]; s.c., 1.0 mg/kg on days 1-3, 13th day) was 20% and the “% died” value ([1]; s.c., 1.0 mg/kg on days 1-3, 14th day) was 40%. For the same compound, the “Mean % Parasitemia” value [1, 14] was 1.75%, the “Mean % Suppression” value [1, 14] was 66.6% and the “Mean % Parasitemia” value [1, 15] was 3.30%. For the same compound, the “Mean % Suppression” value [1, 15] was 54.8%, the “Mean % Parasitemia” value [1, 16] was 4.80% and the “Mean % Suppression” value [1, 16] was 48.4%. For the same compound, the “Mean % Parasitemia” value [1, 17] was 20.5%, the “Mean % Suppression” value [1, 17] was 42.3% and the “% died” value [1, 18] was 20%. For the same compound, the “% died” value [1, 19] was 20%, the “% died” value [1, 20] was 20% and the “Mean % Parasitemia” value [1, 21] was 0.25%. The “Mean % Suppression” value [1, 21] was 96.2%, the “Mean % Parasitemia” value [1, 22] was 0% and the “Mean % Suppression” value [1, 22] was 100.0%. The “Mean % Parasitemia” value [1, 23] was 0%, the “Mean % Suppression” value [1, 23] was 100.0% and the “Mean % Parasitemia” value [1, 24] was 0%. For the same compound, the “Mean % Suppression” value [1, 24] was 100.0%, the “% died” value [1, 25] was 0% and the “% died” value [1, 26] was 0%. The “Mean % Parasitemia” value [1, 27] was 5.00%, the “Mean % Suppression” value [1, 27] was 4.8% and the “Mean % Parasitemia” value [1, 28] was 7.40%. For the same compound, the “Mean % Suppression” value [1, 28] was 0%, the “Mean % Parasitemia” value [1, 29] was 9.20% and the “Mean % Suppression” value [1, 29] was 1.1%. The “Mean % Parasitemia” value [1, 30] was 34.0%, the “Mean % Suppression” value [1, 30] was 4.2% and the “% died” value ([1]; s.c., .15 mg/kg on days 1-3, 12th day) was 0%. For the same compound, the “% died” value ([1]; s.c., .15 mg/kg on days 1-3, 13th day) was 20%, the “% died” value ([1]; s.c., .15 mg/kg on days 1-3, 14th day) was 80% and the “Mean % Parasitemia” value [1, 31] was 4.50%. The “Mean % Suppression” value [1, 31] was 14.3%, the “Mean % Parasitemia” value [1, 32] was 7.30% and the “Mean % Suppression” value [1, 32] was 0%. The “Mean % Parasitemia” value [1, 33] was 9.10%, the “Mean % Suppression” value [1, 33] was 2.2% and the “Mean % Parasitemia” value [1, 34] was 30.8%. The “Mean % Suppression” value [1, 34] was 13.2%, the “% died” value [1, 35] was 40% and the “% died” value [1, 36] was 60%. For the same compound, the “% died” value [1, 37] was 100%, the “Mean % Parasitemia” value [1, 38] was 4.50% and the “Mean % Suppression” value [1, 38] was 14.3%. The “Mean % Parasitemia” value [1, 39] was 7.20%, the “Mean % Suppression” value [1, 39] was 1.4% and the “Mean % Parasitemia” value [1, 40] was 8.20%. The “Mean % Suppression” value [1, 40] was 11.8%, the “Mean % Parasitemia” value [1, 41] was 26.5% and the “Mean % Suppression” value [1, 41] was 25.4%. For the same compound, the “% died” value ([1]; s.c., .30 mg/kg on days 1-3, 12th day) was 0%, the “% died” value ([1]; s.c., .30 mg/kg on days 1-3, 13th day) was 0% and the “% died” value ([1]; s.c., .30 mg/kg on days 1-3, 14th day) was 60%. For the same compound, the “Mean % Parasitemia” value [1, 42] was 3.50%, the “Mean % Suppression” value [1, 42] was 33.3% and the “Mean % Parasitemia” value [1, 43] was 7.10%. The “Mean % Suppression” value [1, 43] was 2.7%, the “Mean % Parasitemia” value [1, 44] was 7.30% and the “Mean % Suppression” value [1, 44] was 21.5%. For the same compound, the “Mean % Parasitemia” value [1, 45] was 24.3%, the “Mean % Suppression” value [1, 45] was 31.5% and the “% died” value [1, 46] was 20%. The “% died” value [1, 47] was 40%, the “% died” value [1, 48] was 80% and the LD50 [2] was 222 to 366 mg/kg.

Compound `Cc1cccc(C)c1NC(=O)NC(=N)NC(C)C.Cl` [Compound E, 1-(2,6-dimethylphenyl)-3-(isopropylamidino)urea hydrochloride] has an ED50 [1, 4] of 0.9 mg/kg, an ED50 [1, 5] of 1.52 mg/kg and an ED50 [1, 6] of 1.52 mg/kg. For the same compound, the ED50 [1, 7] was 5.63 mg/kg, the ED50 [1, 8] was 5.63 mg/kg and the ED50 [1, 9] was 0.9 mg/kg. For the same compound, the “FACTOR (HIGHEST SED50 ÷ LOWEST SED50)” value ([1]; day 4 to day 10) was 6.26, the “Mean % Parasitemia” value [1, 14] was 1.75% and the “Mean % Suppression” value [1, 14] was 66.7%. The “Mean % Parasitemia” value [1, 15] was 3.50%, the “Mean % Suppression” value [1, 15] was 52.1% and the “Mean % Parasitemia” value [1, 16] was 4.10%. For the same compound, the “Mean % Suppression” value [1, 16] was 55.9%, the “Mean % Parasitemia” value [1, 17] was 27.7% and the “Mean % Suppression” value [1, 17] was 22.0%. The “% died” value [1, 18] was 0%, the “% died” value [1, 19] was 20% and the “% died” value [1, 20] was 40%. For the same compound, the “Mean % Parasitemia” value [1, 21] was 0%, the “Mean % Suppression” value [1, 21] was 100.0% and the “Mean % Parasitemia” value [1, 22] was 0%. For the same compound, the “Mean % Suppression” value [1, 22] was 100.0%, the “Mean % Parasitemia” value [1, 23] was 0% and the “Mean % Suppression” value [1, 23] was 100.0%. For the same compound, the “Mean % Parasitemia” value [1, 24] was 0%, the “Mean % Suppression” value [1, 24] was 100.0% and the “% died” value ([1]; s.c., 10.0 mg/kg on days 1-3, 12th day) was 0%. The “% died” value [1, 25] was 0%, the “% died” value [1, 26] was 0% and the “Mean % Parasitemia” value [1, 31] was 5.25%. The “Mean % Suppression” value [1, 31] was 0%, the “Mean % Parasitemia” value [1, 32] was 7.00% and the “Mean % Suppression” value [1, 32] was 4.1%. The “Mean % Parasitemia” value [1, 33] was 8.70%, the “Mean % Suppression” value [1, 33] was 6.5% and the “Mean % Parasitemia” value [1, 34] was 33.9%. The “Mean % Suppression” value [1, 34] was 4.5%, the “% died” value [1, 35] was 0% and the “% died” value [1, 36] was 60%. For the same compound, the “% died” value [1, 37] was 60%, the “Mean % Parasitemia” value [1, 42] was 2.50% and the “Mean % Suppression” value [1, 42] was 52.3%. For the same compound, the “Mean % Parasitemia” value [1, 43] was 6.90%, the “Mean % Suppression” value [1, 43] was 5.5% and the “Mean % Parasitemia” value [1, 44] was 7.40%. The “Mean % Suppression” value [1, 44] was 20.4%, the “Mean % Parasitemia” value [1, 45] was 31.3% and the “Mean % Suppression” value [1, 45] was 11.8%. The “% died” value [1, 46] was 0%, the “% died” value [1, 47] was 20% and the “% died” value [1, 48] was 60%. It also gave an LD50 [2] of 82 to 135 mg/kg.

For `CC1(C)N=C(N)N=C(N)N1c1ccc(Cl)cc1` [chloroguanide triazine pamoate], the “excretion from the host body” value ([3]; P. berghei infected mice, single muscular injection) is listed as “not excreted rapidly from the host body” and the “effect in P. berghei infected mice” value ([3]; single muscular injection) is listed as “good and lasting effects”.

For `CCc1nc(N)nc(N)c1-c1ccc(Cl)cc1` [pyrimethamine], the “resistance of P. berghei” value ([3]; P. berghei) is given as “resistant”.
